Experimental data: paper PMC12114297 (Molecules, 2025)

Key:
[1] = system: Staphylococcus aureus ATCC 25923; assay: Agar well diffusion, S. aureus; assay type: cell-based; details: for Antibacterial activity in words: agar well diffusion, particularly S. aureus; for zone of inhibition at 1000 µg/mL: Staphylococcus aureus, ATCC25923, 60 µL of 1 mg/mL per well, ZOI including the well (6 mm), ± SD, n = 3, ciprofloxacin disk 5 μg, read-out: Staphylococcus aureus ATCC 25923 ZOI
Description: (§1) The antimicrobial potential of the synthesized coumarin–triazole–isatin hybrids was evaluated by the agar well diffusion method. The activity was tested against a variety of Gram-positive bacteria (Staphylococcus aureus ATCC 25923 and ATCC 902710, Staphylococcus epidermidis ATCC 12228, Streptococcus pyogenes ATCC 19615, Enterococcus faecalis ATCC 51299), Gram-negative bacteria (Escherichia coli ATCC 25922, Haemophilus influenzae ATCC 49766, Pseudomonas aeruginosa ATCC 27853, Salmonella typhi ATCC 14028, Neisseria meningitidis ATCC 13090, Neisseria gonorrhoeae ATCC 43069), and fungi (Candida albicans ATCC 60193 and ATCC 90028, Candida orientalis ATCC 6258). All microbial strains were obtained from Microbiologics (St.Cloud, MN, USA).
(§2) The test compounds were dissolved in DMSO to obtain stock solutions (1 mg/mL). Each compound (60 µL) was transferred into wells (6 mm in diameter) that were previously perforated into agar plates inoculated with microbial suspensions standardized to 0.5 McFarland for bacteria and 2 McFarland for Candida spp. DMSO was used as a negative control, while commercial antibiotic disks of novobiocin (5 μg), ampicillin (10 μg), and ciprofloxacin (5 μg) served as positive controls. Antimicrobial activity was assessed by measuring the diameter of zones of inhibition (ZOIs) in millimeters. All tests were conducted in triplicate.

[2] = system: Staphylococcus epidermidis ATCC 12228; assay: Agar well diffusion, S. epidermidis; assay type: cell-based; details: ATCC12228, read-out: Staphylococcus epidermidis ATCC 12228 ZOI, 60 µL of 1 mg/mL per well, ZOI including the well (6 mm), ± SD, n = 3, ciprofloxacin disk 5 μg
Description: as §1, §2

[3] = target: T1, BChE from equine serum (eqBuChE) (Equus caballus, UniProt P81908); assay: biochemical; details: for IC50 / inhibition at 20 µM / BChE % of Inhibition (Conc. 20 μM): average ± standard error (n = 3); for inhibition at 20 µM: read-out: BChE % of Inhibition (Conc. 20 μM), 20 μM
T1 construct: BChE from equine serum (BChE, EC 3.1.1.8); purchased Sigma-Aldrich (St. Louis, MO, USA); host or cells: equine serum
T1 sequence (P81908 whole entry): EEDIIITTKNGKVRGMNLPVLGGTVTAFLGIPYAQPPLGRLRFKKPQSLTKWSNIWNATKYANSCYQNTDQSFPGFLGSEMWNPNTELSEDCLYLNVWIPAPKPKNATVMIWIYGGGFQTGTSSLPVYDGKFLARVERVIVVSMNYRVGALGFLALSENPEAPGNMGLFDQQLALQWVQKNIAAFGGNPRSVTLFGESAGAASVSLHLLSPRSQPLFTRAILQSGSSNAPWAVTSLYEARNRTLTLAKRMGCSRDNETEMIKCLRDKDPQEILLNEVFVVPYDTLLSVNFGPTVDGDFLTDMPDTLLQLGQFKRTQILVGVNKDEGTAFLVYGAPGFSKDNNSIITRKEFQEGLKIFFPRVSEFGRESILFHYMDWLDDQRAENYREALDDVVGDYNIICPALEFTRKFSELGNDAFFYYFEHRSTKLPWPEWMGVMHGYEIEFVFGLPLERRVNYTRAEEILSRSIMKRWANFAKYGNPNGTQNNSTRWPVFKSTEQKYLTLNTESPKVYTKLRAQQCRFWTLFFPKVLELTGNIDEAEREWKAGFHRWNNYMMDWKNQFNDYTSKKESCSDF
Description: The in vitro cholinesterase inhibitory activity of the synthesized hybrid molecules was evaluated using a modified Ellman’s assay, optimized for 96-well microplate application. AChE from Electrophorus electricus (AChE, EC 3.1.1.7), BChE from equine serum (BChE, EC 3.1.1.8), acetylthiocholine iodide (ATCh), butyrylthiocholine iodide (BTCh), and 5,5′-dithiobis(2-nitrobenzoic acid) were purchased from Sigma-Aldrich (St. Louis, MO, USA) and used without further purification.
Test compounds were initially dissolved in dimethylsulphoxide (DMSO) to yield 1 mM stock solutions and subsequently diluted with 0.1 M phosphate buffer (pH 8.0) to prepare working solutions.
For the assay, 20 µL of compound solution was added to 140 µL of 0.1 M phosphate buffer (pH 8.0) in each well, followed by 20 µL of enzyme solution (AChE or BuChE, 100 U/L). After incubation at room temperature for 10 min, the reaction was initiated by adding 10 µL of DTNB (0.01 M) and 10 µL of substrate (ATCh or BTCh, 0.015 M). […] The percentage inhibition of enzyme activity was calculated using the following equation:(1) % Inhibition=Absorbance of control−Apsorbance of sample/Absorbance of control×100 where the absorbance of the control represents the maximum enzyme activity (without inhibition), and the absorbance of the sample corresponds to the enzyme activity in the presence of the tested compound. Appropriate blanks were included to account for background absorbance and to correct for any intrinsic color of the tested compounds.
All experiments were performed in triplicate.

[4] = target: T2, AChE from Electrophorus electricus (eeAChE) (Electrophorus electricus, UniProt O42275); assay: biochemical; details: for inhibition at 20 µM: read-out: AChE % of Inhibition (Conc. 20 μM)
T2 construct: purchased Sigma-Aldrich (St. Louis, MO, USA)
T2 sequence (O42275 24-633): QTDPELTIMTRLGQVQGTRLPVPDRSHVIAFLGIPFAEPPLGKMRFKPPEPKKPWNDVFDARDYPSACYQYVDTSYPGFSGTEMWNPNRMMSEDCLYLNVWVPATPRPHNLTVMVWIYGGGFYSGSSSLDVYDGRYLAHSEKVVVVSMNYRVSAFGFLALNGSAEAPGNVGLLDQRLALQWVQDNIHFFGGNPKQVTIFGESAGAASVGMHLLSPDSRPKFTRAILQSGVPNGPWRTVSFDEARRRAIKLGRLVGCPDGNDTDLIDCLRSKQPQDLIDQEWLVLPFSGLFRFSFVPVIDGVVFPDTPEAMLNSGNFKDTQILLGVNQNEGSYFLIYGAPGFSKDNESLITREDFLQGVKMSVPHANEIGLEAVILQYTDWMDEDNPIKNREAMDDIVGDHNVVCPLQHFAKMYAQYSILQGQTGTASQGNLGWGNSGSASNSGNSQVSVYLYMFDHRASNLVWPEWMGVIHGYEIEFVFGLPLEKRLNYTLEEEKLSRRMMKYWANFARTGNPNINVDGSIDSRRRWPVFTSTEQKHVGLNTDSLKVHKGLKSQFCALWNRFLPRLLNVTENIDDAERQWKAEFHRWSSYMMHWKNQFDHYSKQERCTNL

| Structure (SMILES) | Antibacterial activity in words [1] | zone of inhibition at 1000 µg/mL [2] [mm] | IC50 [3] [µM] | inhibition at 20 µM [3] [%] | inhibition at 20 µM [4] [%] | BChE % of Inhibition (Conc. 20 μM) [3] [%] | Selectivity BChE/AChE ([3]; ratio of AChE and BChE IC50) | IC50 ([4]; average ± standard error (n = 3)) [µM] | zone of inhibition at 1000 µg/mL [1] [mm] |
| --- | --- | --- | --- | --- | --- | --- | --- | --- | --- |
| O=C1C(=O)N(Cc2cn(CCOc3cc(=O)oc4ccccc34)nn2)c2ccccc21 [Compound 6a1, 1-((1-(2-((2-oxo-2H-chromen-4-yl)oxy)ethyl)-1H-1,2,3-triazol-4-yl)methyl)indoline-2,3-dione] | failed to exhibit significant activity | 6.08 ± 1.19 | 6.08 ± 1.19 | 72.8 ± 2.17 | 29.3 ± 2.14 |  |  |  |  |
| O=C1C(=O)N(Cc2cn(CCOc3cc(=O)oc4ccccc34)nn2)c2ccc(F)cc21 [Compound 6a2, 5-fluoro-1-((1-(2-((2-oxo-2H-chromen-4-yl)oxy)ethyl)-1H-1,2,3-triazol-4-yl)methyl)indoline-2,3-dione] | failed to exhibit significant activity | 9.16 ± 1.69 | 9.16 ± 1.69 | 66.2 ± 5.18 | 11.8 ± 1.18 |  |  |  |  |
| O=C1C(=O)N(Cc2cn(CCOc3cc(=O)oc4ccccc34)nn2)c2ccc(Cl)cc21 [Compound 6a3, 5-chloro-1-((1-(2-((2-oxo-2H-chromen-4-yl)oxy)ethyl)-1H-1,2,3-triazol-4-yl)methyl)indoline-2,3-dione] |  | 10.6 ± 1.13 | 10.6 ± 1.13 | 62.6 ± 6.19 | 5.57 ± 1.19 |  |  |  |  |
| O=C1C(=O)N(Cc2cn(CCOc3cc(=O)oc4ccccc34)nn2)c2ccc(I)cc21 [Compound 6a5, 5-iodo-1-((1-(2-((2-oxo-2H-chromen-4-yl)oxy)ethyl)-1H-1,2,3-triazol-4-yl)methyl)indoline-2,3-dione] | largely inactive |  |  | 40.9 ± 6.26 | 3.17 ± 0.26 |  |  |  |  |
| O=C1C(=O)N(Cc2cn(CCOc3cc(=O)oc4ccccc34)nn2)c2ccc([N+](=O)[O-])cc21 [Compound 6a6, 5-nitro-1-((1-(2-((2-oxo-2H-chromen-4-yl)oxy)ethyl)-1H-1,2,3-triazol-4-yl)methyl)indoline-2,3-dione] | largely inactive |  |  | < 6 | 3.11 ± 0.44 | 4.89 ± 0.74 |  |  |  |
| Cc1ccc2c(c1)C(=O)C(=O)N2Cc1cn(CCOc2cc(=O)oc3ccccc23)nn1 [Compound 6a7, 5-methyl-1-((1-(2-((2-oxo-2H-chromen-4-yl)oxy)ethyl)-1H-1,2,3-triazol-4-yl)methyl)indoline-2,3-dione] | largely inactive |  |  |  | 22.8 ± 3.66 | 2.91 ± 0.15 |  |  |  |
| O=C1C(=O)N(Cc2cn(CCCOc3cc(=O)oc4ccccc34)nn2)c2ccccc21 [Compound 6b1, 1-((1-(3-((2-oxo-2H-chromen-4-yl)oxy)propyl)-1H-1,2,3-triazol-4-yl)methyl)indoline-2,3-dione] |  | 8.52 ± 1.28 | 8.52 ± 1.28 | 69.2 ± 5.27 | 69.2 ± 4.27 |  | 2.13 | 18.2 ± 1.19 |  |
| O=C1C(=O)N(Cc2cn(CCCOc3cc(=O)oc4ccccc34)nn2)c2ccc(F)cc21 [Compound 6b2, 5-fluoro-1-((1-(3-((2-oxo-2H-chromen-4-yl)oxy)propyl)-1H-1,2,3-triazol-4-yl)methyl)indoline-2,3-dione] | only modest antibacterial effect | 5.9 ± 1.09 | 5.9 ± 1.09 | 75.5 ± 5.69 | 44.3 ± 5.69 |  |  |  | 9.33 ± 4.04 |
| O=C1C(=O)N(Cc2cn(CCCOc3cc(=O)oc4ccccc34)nn2)c2ccc(Cl)cc21 [Compound 6b3, 5-chloro-1-((1-(3-((2-oxo-2H-chromen-4-yl)oxy)propyl)-1H-1,2,3-triazol-4-yl)methyl)indoline-2,3-dione] | only modest antibacterial effect | 11.2 ± 1.16 | 11.3 ± 1.16 | 61.6 ± 7.24 | 31.5 ± 3.24 |  |  |  | 10.3 ± 1.15 |
